In one series the test system is Swiss albino mice. The note with it: mouse, in vivo. As for the experimental part: (§1) The anti-ulcerative colitis compounds were tested on Swiss albino mice of both genders (26-30 g), as well as male Wistar rats (180-200 g). The animals were housed in standard polypropylene cages with wire mesh tops and maintained under standard conditions (temperature of 23±1.0° C., humidity of 55±10%, 12 h light/12 h dark cycle). They were fed with a standard pellet diet with water ad libitum and were allowed to adapt to the laboratory environment for one week before experimentation.
In order to determine the oral median lethal dose (LD50) of the anti-ulcerative colitis compound, the Swiss albino mice (in groups of six), received one of 50, 100, 500, or 1000 mg/kg doses of the target compound. Control animals received the pharmaceutical vehicle only and were kept under the same conditions. Signs of acute toxicity and the number of deaths per dose within 24 hours were recorded.

Series [1] relates to Acetic Acid-induced Colitis. Description: Acetic acid-induced colitis in rats (prophylactic effect, macroscopic scoring). It counts as in vivo, male Wistar rats. The note with it: for percent protection of control colitis: 50 mg/kg orally; for anti-ulcerative colitis activity (in words): administrated orally to rats, 50 mg/kg. As to the method: as §1
In order to examine the effect of the treatment compounds on ulcerative colitis, five groups of six rats were used. Two groups received compounds 5 and 6 at a dose of 50 mg/kg of body weight. Three other groups of animals were used, with two receiving water orally and the third receiving dexamesathone at a dose of 0.1 mg/kg orally, serving as control, control colitis and standard groups, respectively. All medications were administrated for five successive days. Two hour after the last dose, ulcerative colitis was induced by slowly infusion of 2 mL (4%, v/v) of acetic acid in saline into the colon through a catheter. Two days after the induction of colitis, the animals were sacrificed and colonic segments (8 cm in length and 3 cm proximal to the anus) were excised, opened and were used for macroscopic scoring.
To assess colonic lesions, the colon specimens were weighted and the wet weight/length ratio was calculated for all of the animals. The specimens were examined under a dissecting microscope and mucosal lesions were quantified by the scoring system (0-5): 0=no damage, 1=local edema and inflammation without ulcers; 2=one ulcer without inflammation; 3=one to two ulcers with inflammation and lesion diameter <1 cm; 4=more than two ulcers with lesion diameter 1-2 cm; 5=severe ulceration with lesion diameter >2 cm.
Ulcer area was measured using a plane glass square. Each cell on the glass square was 1 mm^2 in area and the number of cells were counted and the ulcer area was determined for each colon. Ulcer index was measured by summing the lesion score and the ulcer area for each colon specimen. All values were expressed as mean±S.D. Statistical analysis was performed using SPSS 10. Statistical significance of differences between two means was assessed by unpaired student's T-test. Differences at p<0.05, 0.01, and 0.001 were considered statistically significant.

For series [2], the system named is Liver and Kidney Functions. Nature of the series: Effect on liver and kidney functions in rats after 15 days oral dosing. The format is in vivo, male Wistar rats. The arrangement: ALT / AST: dose or concentration left out as unconfirmed. The note with it: oral 15 days; for Blood Urea / ALT / AST / Creatinine: mean ± SD, n = 10; for hepatotoxic manifestation / nephrotoxic manifestations: no significant difference to control at 0.05 level; for ALT / AST / Creatinine: serum. As for the experimental part:
as §1
The male Wister rats were divided into two equal groups each having ten rats. […] After the examination period, 6 hours after the last dose blood samples were collected from the orbital plexus of rats, samples were left to clot at room temperature for 30 minutes and then centrifuged at 1000 rpm for 20 minutes. The collected sera were used for determination of the activity of both […] (AST) and alanine aminotransferase (ALT) as liver markers. Additionally, levels of blood urea and serum creatinine were also estimated as kidney markers.

Regarding `COc1cc(/C=N/n2c(-c3ccc(C)cc3)nc3ccccc3c2=O)ccc1O` [Compound 5, 3-[(4-hydroxy-3-methoxy-benzylidene)-amino]-2-p-tolyl-3H-quinazolin-4-one], the “behavioral changes and/or mortality in mice” value in the series with Swiss albino mice is “did not produce any behavioral changes and/or mortality”. In addition, in series [1], the “percent protection of control colitis” value is recorded as 51.2% and the “anti-ulcerative colitis activity (in words)” value was “potent anti-ulcerative colitis activity”. For the same molecule, in series [2], the “Blood Urea” value amounted to 65.50 ± 1.9 mg/dL, the hepatotoxic manifestation entry is “do not result in hepatotoxic manifestation”, the nephrotoxic manifestations result is recorded as “no apparent nephrotoxic manifestations” and the ALT was 38.67 ± 0.22 U/l. Further, in series [2], the AST was determined as 63.23 ± 0.39 U/l and the Creatinine worked out at 0.85 ± 0.02 mg/dL.
Regarding `COc1cc(/C=N/n2c(-c3ccc(C)cc3)nc3ccccc3c2=O)cc(OC)c1OC` [Compound 6, 2-p-tolyl-3-[3,4,5-trimethoxy-benzylidene-amino]-3H-quinazolin-4-one], the “behavioral changes and/or mortality in mice” value in the series with Swiss albino mice is given as “did not produce any behavioral changes and/or mortality”. For the same molecule, in series [1], the “percent protection of control colitis” value is reported as 61.8% and the “anti-ulcerative colitis activity (in words)” value is “potent anti-ulcerative colitis activity”. Besides, in series [2], the “Blood Urea” value worked out at 65.50 ± 1.9 mg/dL, the hepatotoxic manifestation entry is on record as “do not result in hepatotoxic manifestation”, the nephrotoxic manifestations result is reported as “no apparent nephrotoxic manifestations” and the ALT was found to be 38.67 ± 0.22 U/l. For the same molecule, in series [2], the AST is recorded as 63.23 ± 0.39 U/l and the Creatinine came to 0.85 ± 0.02 mg/dL.
With `C[C@@H]1C[C@H]2[C@@H]3CCC4=CC(=O)C=C[C@]4(C)[C@@]3(F)[C@@H](O)C[C@]2(C)[C@@]1(O)C(=O)CO` [Dexamethasone, reference compound], the percent protection in series [1] (0.1 mg/kg orally) was 72.2%.

Values taken from patent US10016425B2, “Anti-ulcerative colitis compound” (KING SAUD UNIVERSITY, priority 2016, dated 2018).
